In US8318638B2, “Plant activator” (Shiseido Company, Ltd., priority 1999, dated 2012):

Key:
Format in all cases: in vivo
Oryza sativa L. = assay: Growth controlling effect on Oryza sativa L. in paddy field (spraying)
Protocol: (2) Seedlings of Oryza sativa L. were grown in a seedbed in a manner similar to that described in (1), except that the seedlings were immersed in ion-exchange water at 10° C. for 15 days, without application of specific ketol fatty acid (I) described above in (1). Subsequently, the resultant seedlings which had been divided into five groups, each group containing three subgroups (only control group containing four subgroups) and each subgroup containing 16 seedlings, were exposed to the outside environment. Immediately after this exposure, spraying of specific ketol fatty acid (I) was carried out (0 ppm for a first group (control group), 25 ppm for second and third groups, 50 ppm for fourth and fifth groups). Thirty days after the spraying, the seedlings were planted in a paddy field, and additional spraying of specific ketol fatty acid (I) (25 ppm) was carried out for two groups; i.e., the third group (total amount of the acid (I): 25+25 ppm) and the fifth group (total amount of the acid (I): 50+25 ppm). Subsequently, the seedlings of the Oryza sativa L. were grown in the paddy field by means of a customary method. Forty-one days after the above planting, in each group, the plant height and the number of stems per plant (at a section at which four seedlings were planted) were measured, and then averaged.

[1] = tested on: Oryza sativa L. (variety: koshihikari); assay: Growth controlling effect on Oryza sativa L. seedlings (seed immersion)
Protocol: (1) Good-quality seeds of Oryza sativa L. (variety: koshihikari) (200 g) were immersed in water (800 mL) at 10° C. for 13 days. Thereafter, the seeds were equally divided into four groups, and the respective seed groups were immersed in specific ketol fatty acid (I) aqueous solutions (concentration: 0 μM, 1 μM, 10 μM, and 100 μM) (200 mL) at 30° C. for 1.5 days. The immersed seeds were planted in a four-divided seedbed tray, and grown under no light irradiation at 27° C. for three days. Subsequently, the grown seedlings were exposed to the typical outside environment. Six days after the exposure, 18 seedlings were randomly selected from each group, and the heights of the seedlings were measured, and then averaged. […] Subsequently, in consideration of practical handling of seedlings of Oryza sativa L., the effect of application of specific ketol fatty acid (I) was evaluated. […] In order to perform this evaluation, three weeks after the aforementioned light irradiation treatment, seedlings of each group were randomly selected, and the average of the proportions of the second leaves and third leaves was obtained. […] However, unlike the case of promotion of growth of the seedlings, the optimum concentration of the specific ketol fatty acid (I) aqueous solution is 1 μM.

digitalis = assay: Growth promotion effect on digitalis; conditions: 80 μm aqueous solution, five consecutive days then once a week for six weeks; five-and-a-half months after spraying; FIG. 6
Protocol: Two weeks after seeding of digitalis, spraying of an 80 μm specific ketol fatty acid (I) aqueous solution was carried out for five consecutive days. Furthermore, three months after the start of the test; spraying of an 80 μm specific ketol fatty acid (I) aqueous solution was carried out for six weeks (once a week). Five-and-a-half months after the six-week spraying, the size of leaves and the plant height were measured.

strawberry seedlings = assay: Plant dormancy preventive test on strawberry
Protocol: When strawberry seedlings are exposed directly to low temperature conditions in winter, the seedlings enter dormancy, and growth of the seedlings is stopped. Whether or not the present plant activator exerts the effect of preventing dormancy was evaluated.
Specific ketol fatty acid (I) aqueous solutions [concentration: 10 μM, 100 μM, and 0 μM (control)] were applied through spraying to strawberry seedlings on August 27 (at day 0), September 3, and September 8. […] In the control group, no flower bud formation was observed.
At the one hundred and eighth day, percent dormancy (percentage of dormant plants—which are plants in which growth of small leaf buds with markings is not observed 15 days after a marking was applied to the leaf buds—with respect to the entirety of the test plants) was measured. As a result, in the control group, dormancy of the entire plants was observed.

[2] = tested on: carpophores of Lentinus edodes; assay: Growth promotion effect on carpophore of Lentinus edodes (Berk.) Singer; conditions: 5 mL per piece, five days culture at 18° C.
Protocol: Wood (Quercus serrata) containing hyphae of Lentinus edodes was cut into pieces having a length of about 15 cm, and the pieces were immersed in 10° C. water for 24 hours, after which the pieces were allowed to stand in a container of high humidity. Subsequently, specific ketol fatty acid (I) aqueous solutions (concentration: 0 μm, 3 μM, 30 μm, and 100 μM) were applied through spraying to the resultant pieces (six pieces for each group). Each solution was applied to each group (5 mL for each piece). Subsequently, the carpophores of Lentinus edodes were cultured in the same container at 18° C. under weak light irradiation. This culture was continued for five days, and then growth of the carpophores of Lentinus edodes was observed. FIG. 16 is a photograph showing the carpophores of Lentinus edodes cultured in the groups (note: {circumflex over (1)} application of the specific ketol fatty acid (I) (0 μM), (2) (3 μM), (3). (30 μM), and (4) (100 μM)). The average of the carpophores per piece was 0 in the 0 μM application group, 0.17 in the 3 μM application group, 1.0 in the 30 μM application group, and 1.0 in the 100 μM application group.

Primula melacoides = assay: Growth promotion effect on Primula melacoides; conditions: 80 μM aqueous solution, five consecutive days then once a week for six weeks; six-and-a-half months after last spraying; FIG. 9
Protocol: One-and-a-half months after seeding of Primula melacoides, spraying of an 80 μm specific ketol fatty acid (I) aqueous solution was carried out for five consecutive days. Furthermore, four months after the start of the test, spraying of an 80 μM specific ketol fatty acid (I) aqueous solution was carried out for six weeks (once a week). Bolting was not observed at a nutrition growth stage of the Primula melacoides. Six-and-a-half months after the last spraying, the plant width and the leave size were measured.

geranium = assay: Growth promotion effect on geranium; conditions: 80 μM aqueous solution, five consecutive days then once a week for six weeks; mottled and non-mottled leaf types; five-and-a-half months after last spraying; FIG. 8
Protocol: Two weeks after seeding of geranium, spraying of an 80 μM specific ketol fatty acid (I) aqueous solution was carried out for five consecutive days. Furthermore, three months after the start of the test, spraying of an 80 μM specific ketol fatty acid (I) aqueous solution was carried out for six weeks (once a week). Two types of geranium; i.e., geranium having mottled leaves and geranium having leaves of no mottles, were subjected to the test. Five-and-a-half months after the last spraying, the size of the leaves was measured.

[3] = fifth group: 50+25 ppm sprayed, 41 days after planting
[4] = fourth group: 50 ppm sprayed, 41 days after planting
[5] = second group: 25 ppm sprayed, 41 days after planting
[6] = third group: 25+25 ppm sprayed, 41 days after planting

## CC/C=C\C/C=C\CC(=O)C(O)CCCCCCCC(=O)O (stereo not drawn) [specific ketol fatty acid (I), 9-hydroxy-10-oxo-12(Z),15(Z)-octadecadienoic acid]
Oryza sativa L.; 25 to 50+25 ppm, 41 days after planting
  plant height, difference between groups incl. control: significant difference was not observed
Oryza sativa L.; each of the second through fifth groups
  number of stems per plant greater than control group: about 10%
Oryza sativa L.; [3]
  number of stems per plant: 37
  plant height: 58 cm
Oryza sativa L.; [4]
  number of stems per plant: 38
  plant height: 58 cm
Oryza sativa L.; [5]
  number of stems per plant: 38
  plant height: 57 cm
Oryza sativa L.; [6]
  number of stems per plant: 39
  plant height: 57 cm
[1]; seed immersion, FIG. 13
  optimum concentration of the aqueous solution for controlling growth of the third leaves: 1 µM
[1]; seeds immersed in 1 μM, 10 μM, 100 μM solutions at 30° C. for 1.5 days, six days after exposure, 18 seedlings, FIG. 12
  heights of the seedlings (degree of growth promotion): commensurate with the application amount
[1]; seeds immersed in 1, 10, 100 μM solutions, three weeks after light irradiation treatment, FIG. 13
  growth of the third leaves (proportions of second and third leaves): exerts the effect of controlling growth of the third leaves
digitalis
  plant height: increased
  size of leaves: increased
Strawberry seedlings; 10 μM and 100 μM aqueous solutions sprayed three times, cultured outdoors
  formation of flower buds: flower bud formation proceeded, and the number of flowers increased
Strawberry seedlings; 10 μM and 100 μM sprayed, at the one hundred and eighth day, FIG. 14
  percent dormancy: dormancy of strawberry was prevented
Strawberry seedlings; 10 μm vs 100 μM, FIG. 14
  dormancy preventive effect, low vs high concentration: more significant in the group in which the specific ketol fatty acid (I) of low concentration (10 μm) was applied
[2]; 3 μM sprayed
  average of the carpophores per piece: 0.17
[2]; 30 μM sprayed
  average of the carpophores per piece: 1.0
[2]; 100 μM sprayed
  average of the carpophores per piece: 1.0
Primula melacoides
  leave size: increased
  plant width: increased
geranium
  size of the leaves: growth of the leaves of these two types is promoted
